The source of these data is patent US9957254B2, “Cyclohexen-1-yl-pyridin-2-yl-1h-pyrazole-4-carboxylic acid derivatives and the use thereof as soluble guanylate cyclase activators” (Novartis AG, priority 2014, dated 2018).

Some results are limits rather than exact numbers.

In general, EC50 refers to the concentration needed to bring the measured effect to its halfway point. A lower EC50 goes with higher potency in that assay.

The target of the assay is T1, soluble guanylate cyclase (Homo sapiens, UniProt Q02153).
T1 construct: expressed in transfected cells
T1 sequence (Q02108 whole entry partner): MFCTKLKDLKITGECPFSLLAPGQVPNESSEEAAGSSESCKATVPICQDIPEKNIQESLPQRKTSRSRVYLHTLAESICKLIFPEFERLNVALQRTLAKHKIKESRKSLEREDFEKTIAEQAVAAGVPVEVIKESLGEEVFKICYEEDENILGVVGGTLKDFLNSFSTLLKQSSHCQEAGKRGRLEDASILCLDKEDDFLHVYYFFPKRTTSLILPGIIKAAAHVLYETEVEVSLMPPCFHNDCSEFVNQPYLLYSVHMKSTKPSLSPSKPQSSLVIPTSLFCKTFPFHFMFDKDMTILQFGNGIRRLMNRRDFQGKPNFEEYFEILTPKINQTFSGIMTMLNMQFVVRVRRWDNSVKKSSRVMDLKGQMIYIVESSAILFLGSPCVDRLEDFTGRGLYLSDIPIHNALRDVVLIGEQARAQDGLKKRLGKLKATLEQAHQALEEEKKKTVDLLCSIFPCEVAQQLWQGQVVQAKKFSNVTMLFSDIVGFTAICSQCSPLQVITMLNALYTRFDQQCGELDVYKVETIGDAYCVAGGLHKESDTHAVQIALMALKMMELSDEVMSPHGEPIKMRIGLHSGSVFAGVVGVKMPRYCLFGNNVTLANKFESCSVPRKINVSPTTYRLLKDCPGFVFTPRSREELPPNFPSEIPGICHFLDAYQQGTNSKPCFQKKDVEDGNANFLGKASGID
T1 sequence (Q02153 whole entry): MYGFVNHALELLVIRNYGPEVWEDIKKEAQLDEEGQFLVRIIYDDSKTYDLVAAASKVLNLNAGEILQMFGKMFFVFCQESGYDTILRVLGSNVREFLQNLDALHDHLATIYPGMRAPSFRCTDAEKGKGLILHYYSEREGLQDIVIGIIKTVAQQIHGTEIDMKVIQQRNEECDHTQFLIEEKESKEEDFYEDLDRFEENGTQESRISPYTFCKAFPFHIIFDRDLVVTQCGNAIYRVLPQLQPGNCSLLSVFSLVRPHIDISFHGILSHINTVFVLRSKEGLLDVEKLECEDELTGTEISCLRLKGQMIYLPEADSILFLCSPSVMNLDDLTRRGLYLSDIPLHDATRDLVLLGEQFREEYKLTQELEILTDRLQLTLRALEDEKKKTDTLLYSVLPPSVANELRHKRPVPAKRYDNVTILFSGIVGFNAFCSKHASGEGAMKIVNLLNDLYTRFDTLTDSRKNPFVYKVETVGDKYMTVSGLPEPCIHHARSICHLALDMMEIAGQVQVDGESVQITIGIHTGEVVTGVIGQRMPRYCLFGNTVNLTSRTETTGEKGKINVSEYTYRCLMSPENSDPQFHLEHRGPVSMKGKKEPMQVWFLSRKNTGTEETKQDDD
In words: CHO cellular assay (cGMP production, Cisbio cGMP HTRF). The class given is cell-based. As to conditions: CHO K1 cells overexpressing human GUCYA3/GUCYB3 (clone 8E10), 1 mM IBMX, 20 uM ODQ, 1 h room temperature, listed 0.5 nM means actual EC50 ≤0.5 nM (quantification limit). The source says:
Chinese hamster ovary (CHO) cells overexpressing soluble guanylate cyclase were generated to test the effect of sGC activators in a cellular context. Human cDNAs for GUCYA3 (RefSeq: NM_000856.3) and GUCYB3 (RefSeq: NM_000857.1) were amplified by PCR from a HUVEC (Human Umbilical Vein Endothelial Cells) cDNA library and cloned into mammalian expression vectors. CHO K1 cells (ATCC CCL-61) were transfected using Lipofectamine 2000 following manufacturer's instructions and stably expressing clones were identified by antibiotic selection. CHO GUCY clone 8E10 was used for subsequent experiments.
Cells were seeded at a density of 3000 cells/well in white 384-well proxyplates (Perkin Elmer) and incubated overnight, then the medium was removed and cells were washed with assay buffer (HBSS, 0.1% BSA, 1 mM IBMX, 20 uM ODQ). sGC activators were serially diluted in DMSO, then diluted in assay buffer prior to adding to cells (10 ul/well, final DMSO concentration 0.5%). Cells were incubated with compounds for 1 h room temperature, then assayed for cGMP production using Cisbio cGMP HTRF kit (62GM2PEC) according to manufacturer's instructions.
The EC50s are calculated based on the amount of cGMP interpolated from the standard curve, using a 4-parameter sigmoidal dose-response.
Compounds of invention are active on sGC activation. Data on Table 1 collected using the assay of Biological Example 1. The minimum EC50 quantification limit of the assay is 0.5 nM, therefore any compound listed as having an EC50 value of 0.5 nM has a actual EC50 of ≤0.5 nM.
The molecule `CCS(=O)(=O)N1CCC(c2ccc(OCC3=C(c4cccc(-n5ncc(C(=O)O)c5C(F)(F)F)n4)CCCC3)c(C)c2)CC1` [Example 2-8, 1-(6-(2-((4-(1-(ethylsulfonyl)piperidin-4-yl)-2-methylphenoxy)methyl)cyclohex-1-en-1-yl)pyridin-2-yl)-5-(trifluoromethyl)-1H-pyrazole-4-carboxylic acid] yielded an EC50 not above 0.5 nM.
`CCc1cc(OCC2=C(c3cccc(-n4ncc(C(=O)O)c4C(F)(F)F)n3)CCC2C)ccc1C1CCN(C(=O)C2CC2)CC1` (single isomer, unassigned; (+)) [Example 22(b) (+), (+)-1-(6-(2-((4-(1-(cyclopropanecarbonyl)piperidin-4-yl)-3-ethylphenoxy)methyl)-3-methylcyclopent-1-en-1-yl)pyridin-2-yl)-5-(trifluoromethyl)-1H-pyrazole-4-carboxylic acid] had an EC50 of 1 nM.
Molecule `CCC(=O)N1CCC(c2ccc(OCC3=C(c4cccc(-n5ncc(C(=O)O)c5C(F)(F)F)n4)CCCC3)c(C)c2)CC1` [Example 2-1, 1-(6-(2-((2-methyl-4-(1-propionylpiperidin-4-yl)phenoxy)methyl)cyclohex-1-en-1-yl)pyridin-2-yl)-5-(trifluoromethyl)-1H-pyrazole-4-carboxylic acid] registered a 50% effective concentration (EC50) not above 0.5 nM.
Take `O=C(O)c1cnn(-c2cccc(C3=C(COc4ccc([C@H]5CCN(C(=O)C6CC6)C[C@@H]5O)cc4)CCCC3)n2)c1C(F)(F)F` (racemic) [Example 29-2, (±)-1-(6-(2-((4-((3,4-trans)-1-(cyclopropanecarbonyl)-3-hydroxypiperidin-4-yl)phenoxy)methyl)cyclohex-1-en-1-yl)pyridin-2-yl)-5-(trifluoromethyl)-1H-pyrazole-4-carboxylic acid]: the EC50 is 420 nM.
The value for `Cc1cc(C2CCN(C(=O)C3CC3)CC2)ccc1OCC1=C(c2cccc(-n3ncc(C(=O)O)c3C(F)(F)F)n2)CCCC1` [Example 1, 1-(6-(2-((4-(1-(Cyclopropanecarbonyl)piperidin-4-yl)-2-methylphenoxy)methyl)cyclohex-1-en-1-yl)pyridin-2-yl)-5-(trifluoromethyl)-1H-pyrazole-4-carboxylic acid] was not above 0.5 nM; that for `Cc1cc(C2CCN(CC(F)(F)F)CC2)ccc1OCC1=C(c2cccc(-n3ncc(C(=O)O)c3C(F)(F)F)n2)CCC1` [Example 25, 1-(6-(2-((2-Methyl-4-(1-(2,2,2-trifluoroethyl)piperidin-4-yl)phenoxy)methyl)cyclopent-1-en-1-yl)pyridin-2-yl)-5-(trifluoromethyl)-1H-pyrazole-4-carboxylic acid] was 5 nM.
`O=C(O)c1cnn(-c2cccc(C3=C(COc4ccc5c(c4)CCN(Cc4ccc6ccccc6n4)C5)CCCC3)n2)c1C(F)(F)F` [Example 6-2, 1-(6-(2-(((2-(quinolin-2-ylmethyl)-1,2,3,4-tetrahydroisoquinolin-6-yl)oxy)methyl)cyclohex-1-en-1-yl)pyridin-2-yl)-5-(trifluoromethyl)-1H-pyrazole-4-carboxylic acid] gave a concentration giving a half-maximal response (EC50) of 16 nM.
For the molecule `CCc1cc(OCC2=C(c3cccc(-n4ncc(C(=O)O)c4CC)n3)CCCC2C)ccc1C1CCN(C(=O)[C@H](C)O)CC1` (single isomer, unassigned; diastereomer-2) [Example 18b], the concentration giving a half-maximal response (EC50) amounted to 8.9 nM.
`CCN(CC)C(=O)N1CCC(c2ccc(OCC3=C(c4cccc(-n5ncc(C(=O)O)c5C(F)(F)F)n4)CCCC3)c(C)c2)CC1` [Example 2-7, 1-(6-(2-((4-(1-(diethylcarbamoyl)piperidin-4-yl)-2-methylphenoxy)methyl)cyclohex-1-en-1-yl)pyridin-2-yl)-5-(trifluoromethyl)-1H-pyrazole-4-carboxylic acid] had a 50% effective concentration (EC50) of 2 nM.
For the molecule `Cc1cc(C2CCN(C(=O)N(C)C)CC2)ccc1OCC1=C(c2cccc(-n3ncc(C(=O)O)c3C(F)(F)F)n2)CCC1` [Example 23, 1-(6-(2-((4-(1-(Dimethylcarbamoyl)piperidin-4-yl)-2-methylphenoxy)methyl)cyclopent-1-en-1-yl)pyridin-2-yl)-5-(trifluoromethyl)-1H-pyrazole-4-carboxylic acid], a half-maximal effect (EC50) was put at 3.5 nM.
`CC1CCCC(c2cccc(-n3ncc(C(=O)O)c3C(F)(F)F)n2)=C1COc1ccc2c(c1)CCN(Cc1ccccn1)C2` (racemic) [Example 29-1, (±)-1-(6-(3-Methyl-2-(((2-(pyridin-2-ylmethyl)-1,2,3,4-tetrahydroisoquinolin-6-yl)oxy)methyl)cyclohex-1-en-1-yl)pyridin-2-yl)-5-(trifluoromethyl)-1H-pyrazole-4-carboxylic acid] came in with an EC50 of 3.9 nM.
Next, `Cc1cc(C2CCN(C(=O)CO)CC2)ccc1OCC1=C(c2cccc(-n3ncc(C(=O)O)c3C(F)(F)F)n2)CCC1` [Example 24-1, 1-(6-(2-((4-(1-(2-hydroxyacetyl)piperidin-4-yl)-2-methylphenoxy)methyl)cyclopent-1-en-1-yl)pyridin-2-yl)-5-(trifluoromethyl)-1H-pyrazole-4-carboxylic acid]: 19 nM.
Molecule `CCc1cc(OCC2=C(c3cccc(-n4ncc(C(=O)O)c4C(F)(F)F)n3)CCC2C)ccc1C1CCN(C(=O)C2CC2)CC1` (single isomer, unassigned; (-)) [Example 22(b) (−), (−)-1-(6-(2-((4-(1-(cyclopropanecarbonyl)piperidin-4-yl)-3-ethylphenoxy)methyl)-3-methylcyclopent-1-en-1-yl)pyridin-2-yl)-5-(trifluoromethyl)-1H-pyrazole-4-carboxylic acid] showed an EC50 of 5.5 nM.
The value for `CCC(=O)N1CCC(c2ccc(OCC3=C(c4cccc(-n5ncc(C(=O)O)c5C(F)(F)F)n4)CCC3)c(C)c2)CC1` [Example 24-2, 1-(6-(2-((2-Methyl-4-(1-propionylpiperidin-4-yl)phenoxy)methyl)cyclopent-1-en-1-yl)pyridin-2-yl)-5-(trifluoromethyl)-1H-pyrazole-4-carboxylic acid] was 2.4 nM; that for `Cc1cccc(CN2CCc3cc(OCC4=C(c5cccc(-n6ncc(C(=O)O)c6C(F)(F)F)n5)CCCC4)ccc3C2)n1` [Example 5, 1-(6-(2-(((2-((6-Methylpyridin-2-yl)methyl)-1,2,3,4-tetrahydroisoquinolin-6-yl)oxy)methyl)cyclohex-1-en-1-yl)pyridin-2-yl)-5-(trifluoromethyl)-1H-pyrazole-4-carboxylic acid] was 10 nM.
In turn, `Cc1cc(C2CCN(C(=O)C3CC3)CC2)ccc1OCC1=C(c2cccc(-n3ncc(C(=O)O)c3C(F)(F)F)c2)CC(C)CC1` (racemic) [Example 28, (±)-1-(6′-((4-(1-(Cyclopropanecarbonyl)piperidin-4-yl)-2-methylphenoxy)methyl)-3′-methyl-2′,3′,4′,5′-tetrahydro-[1,1-biphenyl]-3-yl)-5-(trifluoromethyl)-1H-pyrazole-4-carboxylic acid] displayed a concentration giving a half-maximal response (EC50) of 22 nM.
As for `CCc1cc(OCC2=C(c3cccc(-n4ncc(C(=O)O)c4C(F)(F)F)n3)CCCC2C)ccc1C1CCN(C(=O)C2CC2)CC1` (single isomer, unassigned; (-)) [Example 13b, (−)-1-(6-(2-((4-(1-(Cyclopropanecarbonyl)piperidin-4-yl)-3-ethylphenoxy)methyl)-3-methylcyclohex-1-en-1-yl)pyridin-2-yl)-5-(trifluoromethyl)-1H-pyrazole-4-carboxylic acid], the response was half-maximal at 9 nM (EC50).
In turn, `CCc1cc(OCC2=C(c3cccc(-n4ncc(C(=O)O)c4C)n3)CCCC2C)ccc1C1CCN(C(=O)C2CC2)CC1` (single isomer, unassigned; (+)) [Example 16a, (+)-1-(6-(2-((4-(1-(Cyclopropanecarbonyl)piperidin-4-yl)-3-ethylphenoxy)methyl)-3-methylcyclohex-1-en-1-yl)pyridin-2-yl)-5-methyl-1H-pyrazole-4-carboxylic acid] showed an EC50 not above 0.5 nM.
Take `CCc1cc(OCC2=C(c3cccc(-n4ncc(C(=O)O)c4CC)n3)CCCC2C)ccc1C1CCN(C(=O)C2CC2)CC1` (single isomer, unassigned; (+)) [Example 17a, (+)-1-(6-(2-((4-(1-(Cyclopropanecarbonyl)piperidin-4-yl)-3-ethylphenoxy)methyl)-3-methylcyclohex-1-en-1-yl)pyridin-2-yl)-5-ethyl-1H-pyrazole-4-carboxylic acid]: the EC50 is not above 0.5 nM.
In turn, `Cc1cc(C2CCN(C(=O)CN)CC2)ccc1OCC1=C(c2cccc(-n3ncc(C(=O)O)c3C(F)(F)F)n2)CCCC1` [Example 11, 1-(6-(2-((4-(1-(2-Aminoacetyl)piperidin-4-yl)-2-methylphenoxy)methyl)cyclohex-1-en-1-yl)pyridin-2-yl)-5-(trifluoromethyl)-1H-pyrazole-4-carboxylic acid] returned a concentration for a half-maximal effect (EC50) of 110 nM.
Next, `CCNC(=O)N1CCC(c2ccc(OCC3=C(c4cccc(-n5ncc(C(=O)O)c5C(F)(F)F)n4)CCCC3)c(C)c2)CC1` [Example 2-12, 1-(6-(2-((4-(1-(ethylcarbamoyl)piperidin-4-yl)-2-methylphenoxy)methyl)cyclohex-1-en-1-yl)pyridin-2-yl)-5-(trifluoromethyl)-1H-pyrazole-4-carboxylic acid]: 14 nM.
